Data reported in ChEMBL document CHEMBL5053488, “Motobamide, an Antitrypanosomal Cyclic Peptide from a Leptolyngbya sp. Marine Cyanobacterium” (J Nat Prod, 2021).
Activity calls are given as the source filed them. The rule behind the calls is not given here. Numbered stars: 1 amine (or outer) side, 2 acyl side, 3 side chain; on linkers, the order of the positions; unused ones are H or OH. Square brackets hold non-standard residues; d marks the D form. Peptide text beside a SMILES is read from it. X1 = CC(C)=CC[C@@]12C[C@@H](C(=O)[*:2])N([*:1])[C@@H]1Nc1ccccc12

Key:
[1] = test system: Trypanosoma brucei rhodesiense; test: Antitrypanosomal activity against Trypanosoma brucei rhodesiense IL-1501 assessed as parasite growth inhibition incubated for 69 hrs by AlamarBlue assay; type: functional, organism-based; settings: IL-1501, 69 h
WI-38 = test: Cytotoxicity against human WI-38 cells assessed as cell growth inhibition measured after 72 hrs by MTT assay; type: cell-based; settings: WI-38, 72 h
HeLa = test: Growth inhibition of human HeLa cells at 10 uM incubated for 72 hrs by MTT assay; type: functional, cell-based
HL-60 = test: Growth inhibition of human HL-60 cells at 10 uM incubated for 72 hrs by MTT assay; type: functional, cell-based
[2] = Ratio of IC50 for cytotoxicity against human WI-38 cells to IC50 for antitrypanosomal activity against Trypanosoma brucei rhodesiense IL-1501

SMILES: CSCC[C@@H]1NC(=O)[C@@H]2CCCN2C(=O)[C@H](C(C)C)NC(=O)[C@@H]2CCCN2C(=O)[C@@H]2CCCN2C(=O)[C@H](CC(C)C)NC(=O)[C@@H]2C[C@@]3(CC=C(C)C)c4ccccc4N[C@H]3N2C(=O)[C@@H]2CCCN2C(=O)[C@H](C(C)C)NC(=O)[C@H](CC(C)C)NC1=O (cyclo(LPPVPMLVP[X1]))
- IC50 [1]: 2.3 µM
- IC50 (WI-38): 55 µM
- growth inhibition (GI) (HeLa): inactive
- growth inhibition (GI) (HL-60): inactive
- Ratio IC50 [2]: >20
